Data as given in patent publication US20260001889A1, “COMPOSITIONS USEFUL FOR MODULATING SPLICING” (Skyhawk Therapeutics, Inc., priority 2022, published 2026).

Key:
total ATXN3 protein = assay: ATXN3 Total Protein Assay (Mesoscale Discovery, SK-N-MC cells); assay type: cell-based, Human; details: incubation for 48 hours, MSD assay
Description: Example 35: ATXN3 Total Protein Assay
Human neuroblastoma SK-N-MC cells were seeded at 10,000 cells/well in 384 well plates one day prior to compound treatment. The concentrations of compounds were tested at appropriate doses ranging from 30 μM to 0.6 nM. After incubation for 48 hours, the cells were lysed with 25 μL of lysis buffer containing protease inhibitors, and total ATXN3 protein levels were assessed by Mesoscale Discovery (MSD) assay developed with one pair of anti-ATXN3 antibodies. The capture and detect antibodies were raised in mouse and rabbit respectively. Anti-rabbit MSD-ST antibody was used for secondary antibody.
ATXN3 recombinant protein was used for standards. The readouts were captured with 35 μL of MSD read buffer and multi-array 384-well high binding plates.

[1] = test system: ATXN3 transcripts containing exon 4; assay: ATXN3 Quantitative Splicing Assay (qPCR, E4E5 primers/probe); assay type: cell-based; details: Homo sapiens, SK-N-MC cells, compounds for 24 h
Outline: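 SK-N-MC human neuroblastoma cells treated 24 h with compound from 30 μM to 0.6 nM, 24 h after plating. Lysate cDNA was run in TaqMan qPCR, with primers/probe E4E5 detecting exon 4-containing ATXN3 transcripts and E8E9 measuring total ATXN3.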

ATXN3-HiBiT protein = assay: ATXN3 Total Protein Assay (Kelly-ATXN3-HiBiT luminescence); assay type: cell-based; details: Kelly-ATXN3-HiBiT cells, 48 h after addition of compound
Outline: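 Kelly cells with homozygous C-terminal HiBiT knock-in on endogenous ATXN3, 2000 per well, dosed 24 h after seeding. HiBiT lytic luminescence read 48 h after compound; sister plate read with CellTiter-Glo for viability; fold change vs DMSO.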

Row | SMILES | IC50 (total ATXN3 protein) | IC50 [1] | EC50 (ATXN3-HiBiT protein)
1 | Cc1c(C[C@@H](N)CCF)oc2c(NCc3cccs3)cc(Cl)nc12 [Compound 31, 2-[(2R)-2-amino-4-fluorobutyl]-5-chloro-3-methyl-N-(thiophen-2-ylmethyl)furo[3,2-b]pyridin-7-amine] | 101 to 500 nM | 101 to 500 nM | 101 to 500 nM
2 | C[C@H](N)Cc1oc2c(NCc3ccco3)cc(Cl)nc2c1Br [Compound 34, 2-[(S)-2-aminopropyl]-3-bromo-5-chloro-7-(furfurylamino)-1-oxa-4-azaindene] | 0.01 to 100 nM | 0.01 to 100 nM | 0.01 to 100 nM
3 | C[C@H](N)Cc1oc2c(NCc3cccs3)cc(C#N)nc2c1Br [Compound 35, 2-[(S)-2-aminopropyl]-3-bromo-7-thenylamino-1-oxa-4-aza-5-indenecarbonitrile] | 101 to 500 nM | 101 to 500 nM | 101 to 500 nM
4 | C[C@H](N)Cc1oc2c(NCc3ccco3)cc(C#N)nc2c1Br [Compound 36, 2-[(S)-2-aminopropyl]-3-bromo-7-(furfurylamino)-1-oxa-4-aza-5-indenecarbonitrile] | 501 to 5000 nM | 501 to 5000 nM | 501 to 5000 nM
5 | COC[C@H](N)Cc1oc2c(NCc3cccs3)cc(Cl)nc2c1Br [Compound 37, 2-[(R)-2-amino-3-methoxypropyl]-3-bromo-5-chloro-7-thenylamino-1-oxa-4-azaindene] | 0.01 to 100 nM | 0.01 to 100 nM | 0.01 to 100 nM
6 | C#Cc1cc(NCc2cccs2)c2oc(C[C@H](C)N)c(C)c2n1 [Compound 40, 2-[(S)-2-aminopropyl]-5-ethynyl-3-methyl-7-thenylamino-1-oxa-4-azaindene] | 501 to 5000 nM | 501 to 5000 nM | 501 to 5000 nM
7 | Cc1c(C[C@@H](N)[C@H](C)F)oc2c(NCc3cccs3)cc(Cl)nc12 [Compound 41, 2-[(2R,3S)-2-amino-3-fluorobutyl]-5-chloro-3-methyl-7-thenylamino-1-oxa-4-azaindene] | 0.01 to 100 nM | 0.01 to 100 nM | 0.01 to 100 nM
8 | C[C@H](F)[C@H](N)Cc1oc2c(NCc3cccs3)cc(Cl)nc2c1Br [Compound 43, 2-[(2R,3S)-2-amino-3-fluorobutyl]-3-bromo-5-chloro-N-(thiophen-2-ylmethyl)furo[3,2-b]pyridin-7-amine] | 0.01 to 100 nM | 0.01 to 100 nM | 0.01 to 100 nM
9 | C[C@@H](F)[C@H](N)Cc1oc2c(NCc3cccs3)cc(Cl)nc2c1Br [Compound 44, 2-[(2R,3R)-2-amino-3-fluorobutyl]-3-bromo-5-chloro-7-thenylamino-1-oxa-4-azaindene] | 101 to 500 nM | 101 to 500 nM | 101 to 500 nM
10 | C[C@H](N)Cc1oc2c(NCc3nccs3)cc(Cl)nc2c1Br [Compound 45, 2-[(S)-2-aminopropyl]-3-bromo-5-chloro-7-{[(1,3-thiazol-2-yl)methyl]amino}-1-oxa-4-azaindene] | 101 to 500 nM | 101 to 500 nM | 0.01 to 100 nM
11 | COC[C@H](N)Cc1oc2c(NCc3ccncc3)cc(Cl)nc2c1Br [Compound 48, (R)-2-(2-amino-3-methoxypropyl)-3-bromo-5-chloro-N-(pyridin-4-ylmethyl)furo[3,2-b]pyridin-7-amine] | 101 to 500 nM | 101 to 500 nM | 101 to 500 nM
12 | COC[C@H](N)Cc1oc2c(NCc3cccs3)cc(Cl)nc2c1Cl [Compound 50, 2-[(R)-2-amino-3-methoxypropyl]-3,5-dichloro-7-thenylamino-1-oxa-4-azaindene] | 0.01 to 100 nM | 0.01 to 100 nM | 0.01 to 100 nM
13 | COC[C@H](N)Cc1oc2c(NCc3ccccc3)cc(Cl)nc2c1Cl [Compound 51, 2-[(R)-2-amino-3-methoxypropyl]-7-benzylamino-3,5-dichloro-1-oxa-4-azaindene] | 101 to 500 nM | 101 to 500 nM | 101 to 500 nM
14 | COC[C@H](N)Cc1oc2c(NCc3ccco3)cc(Cl)nc2c1Cl [Compound 52, 2-[(R)-2-amino-3-methoxypropyl]-3,5-dichloro-7-(furfurylamino)-1-oxa-4-azaindene] | 101 to 500 nM | 0.01 to 100 nM | 0.01 to 100 nM
15 | COC[C@H](N)Cc1oc2c(NCc3nccs3)cc(Cl)nc2c1Cl [Compound 53, 2-[(R)-2-amino-3-methoxypropyl]-3,5-dichloro-7-{[(1,3-thiazol-2-yl)methyl]amino}-1-oxa-4-azaindene] | 101 to 500 nM | 101 to 500 nM | 101 to 500 nM
16 | C[C@H](N)Cc1oc2c(NCc3nccs3)cc(Cl)nc2c1Cl [Compound 57, 2-[(S)-2-aminopropyl]-3,5-dichloro-7-{[(1,3-thiazol-2-yl)methyl]amino}-1-oxa-4-azaindene] | 101 to 500 nM | 101 to 500 nM | 101 to 500 nM

Row | SMILES | IC50 (total ATXN3 protein) | IC50 [1] | EC50 (ATXN3-HiBiT protein)
17 | N[C@@H](CF)Cc1oc2c(NCc3cccs3)cc(Cl)nc2c1Br [Compound 58, 2-[(R)-2-amino-3-fluoropropyl]-3-bromo-5-chloro-7-thenylamino-1-oxa-4-azaindene] | 0.01 to 100 nM | 0.01 to 100 nM | 0.01 to 100 nM
18 | Cc1cc(NCc2cccs2)c2oc(C[C@@H](N)CO)c(Br)c2n1 [Compound 59, (R)-2-amino-3-(3-bromo-5-methyl-7-thenylamino-1-oxa-4-aza-2-indenyl)-1-propanol] | 101 to 500 nM | 101 to 500 nM | 0.01 to 100 nM
19 | N#Cc1cc(NCc2cccs2)c2oc(C[C@@H](N)CO)c(Br)c2n1 [Compound 60, 2-[(R)-2-amino-3-hydroxypropyl]-3-bromo-7-thenylamino-1-oxa-4-aza-5-indenecarbonitrile] | 101 to 500 nM | 101 to 500 nM | 101 to 500 nM
20 | C#Cc1c(C[C@@H](N)COC)oc2c(NCc3cccs3)cc(Cl)nc12 [Compound 61, 2-[(R)-2-amino-3-methoxypropyl]-5-chloro-3-ethynyl-7-thenylamino-1-oxa-4-azaindene] | 0.01 to 100 nM | 0.01 to 100 nM | 0.01 to 100 nM
21 | C#Cc1c(C[C@H](C)N)oc2c(NCc3nccs3)cc(Cl)nc12 [Compound 62, 2-[(S)-2-aminopropyl]-5-chloro-3-ethynyl-7-{[(1,3-thiazol-2-yl)methyl]amino}-1-oxa-4-azaindene] | 101 to 500 nM | 101 to 500 nM | 0.01 to 100 nM
22 | C#Cc1c(C[C@H](C)N)oc2c(NCc3cccs3)cc(Cl)nc12 [Compound 63, 2-[(2S)-2-aminopropyl]-5-chloro-3-ethynyl-N-(thiophen-2-ylmethyl)furo[3,2-b]pyridin-7-amine] | 0.01 to 100 nM | 0.01 to 100 nM | 0.01 to 100 nM
23 | C#Cc1c(C[C@H](C)N)oc2c(NCc3ccco3)cc(Cl)nc12 [Compound 64, 2-[(S)-2-aminopropyl]-5-chloro-3-ethynyl-7-(furfurylamino)-1-oxa-4-azaindene] | 0.01 to 100 nM | 0.01 to 100 nM | 0.01 to 100 nM
24 | C#Cc1c(C[C@@H](N)COC)oc2c(NCc3nccs3)cc(Cl)nc12 [Compound 65, 2-[(R)-2-amino-3-methoxypropyl]-5-chloro-3-ethynyl-7-{[(1,3-thiazol-2-yl)methyl]amino}-1-oxa-4-azaindene] | 101 to 500 nM | 101 to 500 nM | 101 to 500 nM
25 | C#Cc1c(C[C@@H](N)COC)oc2c(NCc3ccco3)cc(Cl)nc12 [Compound 66, 2-[(R)-2-amino-3-methoxypropyl]-5-chloro-3-ethynyl-7-(furfurylamino)-1-oxa-4-azaindene] | 0.01 to 100 nM | 0.01 to 100 nM | 0.01 to 100 nM
26 | C#CC[C@H](N)Cc1oc2c(NCc3cccs3)cc(Cl)nc2c1Br [Compound 77, 2-[(S)-2-amino-4-pentynyl]-3-bromo-5-chloro-7-thenylamino-1-oxa-4-azaindene] | 0.01 to 100 nM | 0.01 to 100 nM | 0.01 to 100 nM
27 | NC(Cc1oc2c(NCc3cccs3)cc(Cl)nc2c1Br)CC1(F)CC1 (stereo not drawn) [Compound 85, 2-[2-amino-3-(1-fluorocyclopropyl)propyl]-3-bromo-5-chloro-7-thenylamino-1-oxa-4-azaindene] | 101 to 500 nM | 101 to 500 nM | 101 to 500 nM
28 | C#C[C@H](N)Cc1oc2c(NCc3cccs3)cc(Cl)nc2c1Br [Compound 88, 2-[(R)-2-amino-3-butynyl]-3-bromo-5-chloro-7-thenylamino-1-oxa-4-azaindene] | 0.01 to 100 nM | 0.01 to 100 nM | 101 to 500 nM
29 | C[C@H](F)[C@H](N)Cc1oc2c(NCc3nccs3)cc(Cl)nc2c1Br [Compound 90, 2-[(2R,3S)-2-amino-3-fluorobutyl]-3-bromo-5-chloro-7-{[(1,3-thiazol-2-yl)methyl]amino}-1-oxa-4-azaindene] | 0.01 to 100 nM | 0.01 to 100 nM | 0.01 to 100 nM
30 | C[C@@H](F)[C@H](N)Cc1oc2c(NCc3nccs3)cc(Cl)nc2c1Br [Compound 91, 2-[(2R,3R)-2-amino-3-fluorobutyl]-3-bromo-5-chloro-7-{[(1,3-thiazol-2-yl)methyl]amino}-1-oxa-4-azaindene] | 501 to 5000 nM | 501 to 5000 nM | 501 to 5000 nM
31 | C[C@H](F)[C@H](N)Cc1oc2c(NCc3ccccc3)cc(Cl)nc2c1Br [Compound 92, 2-[(2R,3S)-2-amino-3-fluorobutyl]-7-benzylamino-3-bromo-5-chloro-1-oxa-4-azaindene] | 101 to 500 nM | 101 to 500 nM | 101 to 500 nM
